Test results published in ChEMBL document CHEMBL3763014, “Alkaloids from Oxytropis ochrocephala and antiproliferative activity of sophoridine derivatives against cancer cell lines” (Bioorg Med Chem Lett, 2016).

Columns and labels:
Type in all cases: functional, cell-based
[1] = Antiproliferative activity against human KBVIN cells after 3 days by SRB assay; settings: 72 h
KB = test: Antiproliferative activity against human KB cells after 3 days by SRB assay; settings: 72 h
MDA-MB-231 = test: Antiproliferative activity against human MDA-MB-231 cells after 3 days by SRB assay; settings: MDA-MB-231, 72 h
A549 = test: Antiproliferative activity against human A549 cells after 3 days by SRB assay; settings: A549, 72 h
MCF7 = test: Antiproliferative activity against human MCF7 cells after 3 days by SRB assay; settings: MCF7, 72 h

Structure (SMILES) | IC50 (KB) | IC50 (MDA-MB-231) | IC50 (A549) | IC50 (MCF7) | IC50 [1]
O=C1CCCC2=C3CCCN4CCC[C@@H](CN12)[C@@H]34 | > 40 µM | > 40 µM | > 40 µM |  | > 40 µM
COc1cc(/C=C2\CC[C@@H]3[C@H]4CCCN5CCC[C@H](CN3C2=O)[C@@H]45)ccc1C | 58 µM | 45 µM | 42 µM | 54 µM | 72 µM
O=C1C=CC[C@@H]2[C@H]3CCCN4CCC[C@@H](CN12)[C@@H]34 [SOPHOCARPINE] | > 40 µM | > 40 µM | > 40 µM |  | > 40 µM
O=C1CCC[C@@H]2[C@H]3CCCN4CCC[C@H](CN12)[C@@H]34 [SOPHORIDINE] | > 80 µM | > 80 µM | > 80 µM | > 80 µM | > 80 µM
CCOc1cc(/C=C2\CC[C@@H]3[C@H]4CCCN5CCC[C@H](CN3C2=O)[C@@H]45)ccc1OCOC | > 40 µM | > 40 µM | > 40 µM |  | > 40 µM
O=C1CCC[C@@H]2[C@H]3CCCN4CCC[C@@H](CN12)[C@@H]34 [MATRINE] | > 40 µM | > 40 µM | > 40 µM |  | > 40 µM
O=C1CCC[C@@H]2[C@@H]3C[C@@H](CN12)[C@@H]1CCCCN1C3 | > 40 µM | > 40 µM | > 40 µM |  | > 40 µM
O=C1/C(=C/c2ccc3c(c2)OCO3)CC[C@@H]2[C@H]3CCCN4CCC[C@H](CN12)[C@@H]34 | > 40 µM | > 40 µM | > 40 µM |  | > 40 µM
O=C1CCC[C@@H]2[C@H]3CCCN4CCC[C@H](CN12)[C@H]34 | > 40 µM | > 40 µM | > 40 µM |  | > 40 µM
O[C@@H]1[C@H]2[C@H](O)CCCN2C[C@@H]1O | > 40 µM | > 40 µM | > 40 µM |  | > 40 µM
O=c1cccc2n1C[C@@H]1CCCN3CCC[C@H]2[C@H]13 | > 40 µM | > 40 µM | > 40 µM |  | > 40 µM

The next lines start with results.

IC50 (KB) | IC50 (MDA-MB-231) | IC50 (A549) | IC50 (MCF7) | Structure (SMILES) | IC50 [1]
> 40 µM | > 40 µM | > 40 µM |  | COc1cccc(OC)c1/C=C1\CC[C@@H]2[C@H]3CCCN4CCC[C@H](CN2C1=O)[C@@H]34 | > 40 µM
4e-05 µM | 0.018 µM | 3e-05 µM |  | CC(=O)O[C@H]1C(=O)[C@@]2(C)[C@H]([C@H](OC(=O)c3ccccc3)[C@]3(O)C[C@H](OC(=O)[C@H](O)[C@@H](NC(=O)c4ccccc4)c4ccccc4)C(C)=C1C3(C)C)[C@]1(OC(C)=O)CO[C@@H]1C[C@@H]2O [PACLITAXEL] | 2.6 µM
74 µM | 67 µM | 74 µM | > 80 µM | COc1ccc(/C=C2\CC[C@@H]3[C@H]4CCCN5CCC[C@H](CN3C2=O)[C@@H]45)c(C)c1 | > 80 µM
71 µM | 68 µM | > 80 µM | > 80 µM | COc1cccc(/C=C2\CC[C@@H]3[C@H]4CCCN5CCC[C@H](CN3C2=O)[C@@H]45)c1OC | > 80 µM
> 40 µM | > 40 µM | > 40 µM |  | CN(C)c1ccc(/C=C2\CC[C@@H]3[C@H]4CCCN5CCC[C@H](CN3C2=O)[C@@H]45)cc1 | > 40 µM
20.7 µM | 21.9 µM | 17.6 µM | 20.5 µM | CCOc1cc(/C=C2\CC[C@@H]3[C@H]4CCCN5CCC[C@H](CN3C2=O)[C@@H]45)ccc1OCc1ccccc1 | 21.6 µM
